# Test results reported in PubChem BioAssay AID192 (DTP/NCI, 2004).
# Values joined by “and” are separate entries in the source; they are usually repeats but may differ in a detail not shown here. Equal values may be shown once. Toxic doses and inconclusive results are not listed.
# System: BDF1 mice, B16 melanoma ip, median survival T/C
# Assay: NCI In Vivo Anticancer Drug Screen. Data for tumor model B16 Melanoma (intraperitoneal) in B6D2F1 (BDF1) mice
# Conditions: endpoint: median survival time, higher = longer survival
# Outline: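 Antitumor activity is assessed in mice bearing a transplanted tumor, with survival or tumor size compared against vehicle-dosed controls and expressed as T/C.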
# [1] = dose: 3.12 mg/kg/injection, schedule: Q01DX009 (ip), vehicle: Klucel (hydroxypropylcellulose) (HPC)
# [2] = dose: 25.0 mg/kg/injection, schedule: Q01DX009 (ip), vehicle: Klucel (hydroxypropylcellulose) (HPC)
# [3] = dose: 100.0 mg/kg/injection, schedule: Q01DX009 (ip), vehicle: Klucel (hydroxypropylcellulose) (HPC)
# [4] = dose: 400.0 mg/kg/injection, schedule: Q01DX009 (ip), vehicle: Klucel (hydroxypropylcellulose) (HPC)
# [5] = dose: 12.5 mg/kg/injection, schedule: Q01DX009 (ip), vehicle: Klucel (hydroxypropylcellulose) (HPC)
# [6] = dose: 50.0 mg/kg/injection, schedule: Q01DX009 (ip), vehicle: Klucel (hydroxypropylcellulose) (HPC)
# [7] = dose: 200.0 mg/kg/injection, schedule: Q01DX009 (ip), vehicle: Klucel (hydroxypropylcellulose) (HPC)
# [8] = dose: 0.25 mg/kg/injection, schedule: Q01DX009 (ip), vehicle: saline
# [9] = dose: 4.0 mg/kg/injection, schedule: Q04DX003 (ip), vehicle: saline
compound,measurement,setting,value
O=C(O)c1cccc2[nH]c(=O)oc(=O)c12,T/C,"dose: 100.0 mg/kg/injection, schedule: Q01DX009 (ip), vehicle: saline with Tween-80",89 % of control
same,T/C,"dose: 200.0 mg/kg/injection, schedule: Q01DX009 (ip), vehicle: saline with Tween-80",91 % of control
C[n+]1c(-c2cccc3ccccc23)c2cc(N)ccc2c2ccccc21,T/C,"dose: 1.56 mg/kg/injection, schedule: Q01DX009 (ip), vehicle: water",114 % of control
same,T/C,"dose: 3.12 mg/kg/injection, schedule: Q01DX009 (ip), vehicle: water",106 % of control
same,T/C,"dose: 6.25 mg/kg/injection, schedule: Q01DX009 (ip), vehicle: water",124 % of control
same,T/C,"dose: 12.5 mg/kg/injection, schedule: Q01DX009 (ip), vehicle: water",94 % of control
O.O.O=c1[nH]cc(CO)c(=O)[nH]1.[NH2-].[NH2-].[Pt+2],T/C,[1],107 % of control
same,T/C,"dose: 6.25 mg/kg/injection, schedule: Q01DX009 (ip), vehicle: Klucel (hydroxypropylcellulose) (HPC)",106 % of control
same,T/C,[2],185 % of control
CCCCN(CC)C(=S)S[Te](SC(=S)N(CC)CCCC)(SC(=S)N(CC)CCCC)SC(=S)N(CC)CCCC,T/C,[3],110 % of control
same,T/C,[4],100 % of control
COc1ccc(Nc2ccnc3cc(Cl)ccc23)cc1CN(CCCl)CCCl,T/C,"dose: 1.25 mg/kg/injection, schedule: Q01DX009 (ip), vehicle: Klucel (hydroxypropylcellulose) (HPC)",118 % of control
same,T/C,"dose: 2.5 mg/kg/injection, schedule: Q01DX009 (ip), vehicle: Klucel (hydroxypropylcellulose) (HPC)",94 % of control
COc1cc(O)c2c(O)c3c(c4c2c1[C@]1(C4)C(C)=CCCC1(C)C)[C@H](O)[C@@]1(O)CC(=O)C(C(N)=O)=C(O)[C@@]1(O)C3=O,T/C,"dose: 6.0 mg/kg/injection, schedule: Q01DX009 (ip), vehicle: saline with Tween-80",97 % of control
same,T/C,"dose: 6.25 mg/kg/injection, schedule: Q04DX003 (ip), vehicle: saline with Tween-80",112 % of control
same,T/C,"dose: 12.5 mg/kg/injection, schedule: Q04DX003 (ip), vehicle: saline with Tween-80",116 % of control
same,T/C,"dose: 25.0 mg/kg/injection, schedule: Q04DX003 (ip), vehicle: saline with Tween-80",121 % of control
COC1C(CO)OC(n2cnc3c(=S)nc(N)[nH]c32)C1O (stereo not given),T/C,[5],112 % of control
same,T/C,[2],103 % of control
same,T/C,[6],108 % of control
CCOc1ccccc1NC(=O)CC(C)=O,T/C,[3],100 % of control
same,T/C,[7],97 % of control
CCCCCCCCCCCC[N+](C)(C)Cc1ccccc1,T/C,[8],100 % of control and 110 % of control
same,T/C,"dose: 0.25 mg/kg/injection, schedule: Q04DX003 (ip), vehicle: saline",103 % of control
same,T/C,"dose: 0.5 mg/kg/injection, schedule: Q01DX009 (ip), vehicle: saline",97 % of control and 105 % of control and 107 % of control
same,T/C,"dose: 0.5 mg/kg/injection, schedule: Q04DX003 (ip), vehicle: saline",95 % of control and 100 % of control
same,T/C,"dose: 1.0 mg/kg/injection, schedule: Q01DX009 (ip), vehicle: saline",92 % of control and 104 % of control
same,T/C,"dose: 1.0 mg/kg/injection, schedule: Q04DX003 (ip), vehicle: saline",96 % of control
same,T/C,"dose: 2.0 mg/kg/injection, schedule: Q01DX009 (ip), vehicle: saline with Tween-80",150 % of control
same,T/C,"dose: 2.0 mg/kg/injection, schedule: Q01DX009 (ip), vehicle: saline",88 % of control and 106 % of control
same,T/C,"dose: 2.0 mg/kg/injection, schedule: Q04DX003 (ip), vehicle: saline with Tween-80",158 % of control
same,T/C,"dose: 2.0 mg/kg/injection, schedule: Q04DX003 (ip), vehicle: saline",88 % of control
same,T/C,"dose: 4.0 mg/kg/injection, schedule: Q01DX009 (ip), vehicle: saline",94 % of control and 100 % of control
same,T/C,"dose: 4.0 mg/kg/injection, schedule: Q04DX003 (ip), vehicle: saline with Tween-80",177 % of control
same,T/C,[9],93 % of control
COc1cc(NS(=O)(=O)c2ccc(C(C)=O)cc2)nc(OC)n1,T/C,[3],100 % of control
same,T/C,[7],100 % of control
same,T/C,[4],93 % of control
CC1(C)SC(C(NC(=O)COc2ccccc2)C(=O)O)NC1C(=O)O (stereo not given),T/C,[6],107 % of control
same,T/C,[3],110 % of control
same,T/C,[7],105 % of control
CCOc1ccc(Br)cc1/C=N\N=C\c1cc(Br)ccc1OCC,T/C,[5],100 % of control
same,T/C,[2],88 % of control and 105 % of control
same,T/C,[6],89 % of control and 94 % of control
CN(Cc1cnc2nc(N)nc(N)c2n1)c1ccc(C(=O)N[C@@H](CCC(=O)O)C(=O)O)cc1,T/C,[8],102 % of control
same,T/C,"dose: 0.25 mg/kg/injection, schedule: Q01DX017 (ip), vehicle: saline",107 % of control
same,T/C,"dose: 0.37 mg/kg/injection, schedule: Q01DX009 (ip), vehicle: sodium bicarbonate",93 % of control and 103 % of control
same,T/C,"dose: 0.5 mg/kg/injection, schedule: Q01DX009 (ip), vehicle: sodium bicarbonate",92 % of control and 103 % of control (2×)
same,T/C,"dose: 0.5 mg/kg/injection, schedule: Q01DX017 (ip), vehicle: saline",104 % of control
same,T/C,"dose: 0.75 mg/kg/injection, schedule: Q01DX009 (ip), vehicle: sodium bicarbonate",104 % of control and 105 % of control
same,T/C,"dose: 1.0 mg/kg/injection, schedule: Q01DX017 (ip), vehicle: saline",111 % of control
same,T/C,"dose: 1.5 mg/kg/injection, schedule: Q01DX009 (ip), vehicle: saline",92 % of control
same,T/C,"dose: 1.5 mg/kg/injection, schedule: Q01DX009 (ip), vehicle: sodium bicarbonate",98 % of control and 106 % of control
same,T/C,"dose: 2.0 mg/kg/injection, schedule: Q01DX017 (ip), vehicle: saline",88 % of control
same,T/C,"dose: 2.0 mg/kg/injection, schedule: Q04DX005 (ip), vehicle: saline",107 % of control
same,T/C,"dose: 3.0 mg/kg/injection, schedule: Q01DX009 (ip), vehicle: sodium bicarbonate",94 % of control and 100 % of control
same,T/C,[9],113 % of control
same,T/C,"dose: 4.0 mg/kg/injection, schedule: Q04DX005 (ip), vehicle: saline",109 % of control
same,T/C,"dose: 6.0 mg/kg/injection, schedule: Q01DX009 (ip), vehicle: sodium bicarbonate",90 % of control
same,T/C,"dose: 8.0 mg/kg/injection, schedule: Q04DX003 (ip), vehicle: saline",109 % of control
same,T/C,"dose: 8.0 mg/kg/injection, schedule: Q04DX005 (ip), vehicle: saline",104 % of control
same,T/C,"dose: 16.0 mg/kg/injection, schedule: Q04DX003 (ip), vehicle: saline",109 % of control
same,T/C,"dose: 16.0 mg/kg/injection, schedule: Q04DX005 (ip), vehicle: saline",97 % of control
same,T/C,"dose: 32.0 mg/kg/injection, schedule: Q01DX001 (ip), vehicle: saline",121 % of control
same,T/C,"dose: 32.0 mg/kg/injection, schedule: Q04DX003 (ip), vehicle: saline",106 % of control
same,T/C,"dose: 128.0 mg/kg/injection, schedule: Q01DX001 (ip), vehicle: saline",123 % of control
CCC1OCCN1C(C)C (stereo not given),T/C,"dose: 25.0 mg/kg/injection, schedule: Q01DX009 (ip), vehicle: saline",102 % of control
same,T/C,"dose: 50.0 mg/kg/injection, schedule: Q01DX009 (ip), vehicle: saline",106 % of control
O=C(O)c1cc(C(=O)O)cc([N+](=O)[O-])c1,T/C,"dose: 25.0 mg/kg/injection, schedule: Q01DX009 (ip), vehicle: saline with Tween-80",97 % of control
same,T/C,"dose: 50.0 mg/kg/injection, schedule: Q01DX009 (ip), vehicle: saline with Tween-80",100 % of control
COC(=O)C1(C(=O)OC)CCCCC1=O,T/C,"dose: 100.0 mg/kg/injection, schedule: Q04DX003 (ip), vehicle: Klucel (hydroxypropylcellulose) (HPC)",93 % of control
same,T/C,"dose: 200.0 mg/kg/injection, schedule: Q04DX003 (ip), vehicle: Klucel (hydroxypropylcellulose) (HPC)",94 % of control
C/C=C/C(=O)OC(C)CCC(CC)CCCC (stereo not given),T/C,[3],90 % of control
same,T/C,[7],90 % of control
same,T/C,[4],90 % of control
O=C(COc1cc(Cl)c(Cl)cc1Cl)OCCOc1cc(Cl)c(Cl)cc1Cl,T/C,"dose: 12.0 mg/kg/injection, schedule: Q01DX009 (ip), vehicle: Klucel (hydroxypropylcellulose) (HPC)",98 % of control
same,T/C,"dose: 24.0 mg/kg/injection, schedule: Q01DX009 (ip), vehicle: Klucel (hydroxypropylcellulose) (HPC)",98 % of control
same,T/C,"dose: 48.0 mg/kg/injection, schedule: Q01DX009 (ip), vehicle: Klucel (hydroxypropylcellulose) (HPC)",91 % of control
same,T/C,"dose: 96.0 mg/kg/injection, schedule: Q01DX009 (ip), vehicle: Klucel (hydroxypropylcellulose) (HPC)",93 % of control
CC1=CC(=Nc2ccc(N(CCCl)CCCl)cc2)C=C(C)C1=O,T/C,[1],102 % of control and 110 % of control
same,T/C,[5],160 % of control
same,T/C,[2],160 % of control
same,T/C,[3],158 % of control
COc1cc(C=Nc2cccc(C(F)(F)F)c2)ccc1O,T/C,[3],99 % of control
same,T/C,[7],94 % of control
